Data published in PMC6273152, “Design, Synthesis, and Biological Evaluation of Novel PARP-1 Inhibitors Based on a 1H-Thieno[3,4-d] Imidazole-4-Carboxamide Scaffold” (Molecules, 2016).
Like-named read-outs stand apart in the source and are kept apart here.

Assays:
PARP-1 enzyme = target: T1, PARP-1 enzyme (Homo sapiens, UniProt P09874); test: PARP-1 enzymatic inhibition assay (Trevigen 96-well kit, fluorescence); format: biochemical; settings: logit method, six concentrations, read-out: IC50 (PARP-1 enzyme inhibitory activity)
T1 construct: purchased Trevigen 4690-096-K
T1 sequence (P09874 whole entry): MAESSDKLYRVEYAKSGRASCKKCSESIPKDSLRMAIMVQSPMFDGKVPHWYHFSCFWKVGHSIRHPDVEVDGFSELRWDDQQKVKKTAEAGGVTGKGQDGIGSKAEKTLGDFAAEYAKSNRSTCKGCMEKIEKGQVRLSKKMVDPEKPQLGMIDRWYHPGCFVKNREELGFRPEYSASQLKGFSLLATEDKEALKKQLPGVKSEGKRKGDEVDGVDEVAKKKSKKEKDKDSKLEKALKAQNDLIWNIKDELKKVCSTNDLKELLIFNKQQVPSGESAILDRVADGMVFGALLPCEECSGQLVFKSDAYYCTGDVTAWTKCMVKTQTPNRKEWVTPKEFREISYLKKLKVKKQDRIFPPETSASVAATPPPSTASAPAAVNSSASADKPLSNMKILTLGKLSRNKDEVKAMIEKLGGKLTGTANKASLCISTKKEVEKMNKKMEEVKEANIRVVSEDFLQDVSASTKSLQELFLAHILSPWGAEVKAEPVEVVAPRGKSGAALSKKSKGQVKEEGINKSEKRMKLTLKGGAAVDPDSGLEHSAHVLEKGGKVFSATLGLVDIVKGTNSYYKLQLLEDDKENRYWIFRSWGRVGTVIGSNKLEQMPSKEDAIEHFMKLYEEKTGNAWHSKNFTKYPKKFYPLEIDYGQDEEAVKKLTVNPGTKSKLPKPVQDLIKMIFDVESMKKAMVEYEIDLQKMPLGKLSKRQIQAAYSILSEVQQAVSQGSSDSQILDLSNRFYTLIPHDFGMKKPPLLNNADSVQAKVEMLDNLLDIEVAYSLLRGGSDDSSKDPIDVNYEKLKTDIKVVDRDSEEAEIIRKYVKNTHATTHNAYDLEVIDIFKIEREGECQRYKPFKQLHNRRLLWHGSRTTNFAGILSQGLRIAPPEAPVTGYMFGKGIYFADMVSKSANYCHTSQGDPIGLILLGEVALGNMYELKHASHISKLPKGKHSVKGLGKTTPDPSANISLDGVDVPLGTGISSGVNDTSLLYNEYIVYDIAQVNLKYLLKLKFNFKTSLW
Experimental: All target compounds were evaluated in vitro for their PARP-1 enzyme inhibitory activity.
The procedure was according to the instructions provided by the manufacturer. […] 25 μL of 1 × Buffer was added to each well and 25 μL of appropriate 2 × NAD^+ standards were added to 1B to 1G and 2B to 2G well of 96-well plate for standard curve. 25 μL of 2 μM NAD was added to 1H and 2H for PARP control. 25 μL of 2 μM NAD was added to wells for test compounds, then serially diluted compounds were added, and 1 μL of DMSO was added to the standard well. 25 μL of PARP Mix minus enzyme was added to 1A to 1G and 25 μL of PARP Mix plus enzyme was added to PARP control and compounds well. […] Then 50 μL stop solution was added to each well, and mixed with pipette. […] Then draw the standard curve and calculate the inhibition rate of each test compound.

Row | SMILES | IC50 (PARP-1 enzyme; Table 1 series (12, 13a–j)) | melting point | IC50 (PARP-1 enzyme; Table 2 series (16a–n))
1 | NC(=O)c1scc2[nH]c(-c3ccc(C(=O)N4CCNCC4)cc3)nc12 [Compound 12, 2-(4-(Piperazine-1-carbonyl)phenyl)-1H-thieno[3,4-d]imidazole-4-carboxamide] | 0.723 µM | – | –
2 | NC(=O)c1scc2[nH]c(-c3ccc(C(=O)N4CCN(C(=O)c5cccs5)CC4)cc3)nc12 [Compound 13a, 2-(4-(4-(Thiophene-2-carbonyl)piperazine-1-carbonyl)phenyl)-1H-thieno[3,4-d]imidazole-4-carboxamide] | 2.57 µM | – | –
3 | NC(=O)c1scc2[nH]c(-c3ccc(C(=O)N4CCN(C(=O)c5ccccc5)CC4)cc3)nc12 [Compound 13b, 2-(4-(4-Benzoylpiperazine-1-carbonyl)phenyl)-1H-thieno[3,4-d]imidazole-4-carboxamide] | 3.76 µM | 270 to 272 °C | –
4 | NC(=O)c1scc2[nH]c(-c3ccc(C(=O)N4CCN(C(=O)c5ccc(Br)cc5)CC4)cc3)nc12 [Compound 13c, 2-(4-(4-(4-Bromobenzoyl)piperazine-1-carbonyl)phenyl)-1H-thieno[3,4-d]imidazole-4-carboxamide] | 1.87 µM | 294 to 296 °C | –
5 | NC(=O)c1scc2[nH]c(-c3ccc(C(=O)N4CCN(C(=O)c5ccc(Cl)cc5)CC4)cc3)nc12 [Compound 13d, 2-(4-(4-(4-Chlorobenzoyl)piperazine-1-carbonyl)phenyl)-1H-thieno[3,4-d]imidazole-4-carboxamide] | – | 247 to 249 °C | –
6 | Cc1ccc(C(=O)N2CCN(C(=O)c3ccc(-c4nc5c(C(N)=O)scc5[nH]4)cc3)CC2)cc1 [Compound 13e, 2-(4-(4-(4-Methylbenzoyl)piperazine-1-carbonyl)phenyl)-1H-thieno[3,4-d]imidazole-4-carboxamide] | – | 308 to 310 °C | –
7 | NC(=O)c1scc2[nH]c(-c3ccc(C(=O)N4CCN(Cc5ccccc5)CC4)cc3)nc12 [Compound 13f, 2-(4-(4-Benzylpiperazine-1-carbonyl)phenyl)-1H-thieno[3,4-d]imidazole-4-carboxamide] | 3.86 µM | – | –
8 | NC(=O)c1scc2[nH]c(-c3ccc(C(=O)N4CCN(Cc5ccc(Br)cc5)CC4)cc3)nc12 [Compound 13g, 2-(4-(4-(4-Bromobenzyl)piperazine-1-carbonyl)phenyl)-1H-thieno[3,4-d]imidazole-4-carboxamide] | – | 285 to 288 °C | –
9 | N#Cc1ccc(CN2CCN(C(=O)c3ccc(-c4nc5c(C(N)=O)scc5[nH]4)cc3)CC2)cc1 [Compound 13h, 2-(4-(4-(4-Cyanobenzyl)piperazine-1-carbonyl)phenyl)-1H-thieno[3,4-d]imidazole-4-carboxamide] | 3.72 µM | 284 to 286 °C | –
10 | Cc1ccc(CN2CCN(C(=O)c3ccc(-c4nc5c(C(N)=O)scc5[nH]4)cc3)CC2)cc1 [Compound 13i, 2-(4-(4-(4-Methylbenzyl)piperazine-1-carbonyl)phenyl)-1H-thieno[3,4-d]imidazole-4-carboxamide] | – | 272 to 273 °C | –
11 | NC(=O)c1scc2[nH]c(-c3ccc(C(=O)N4CCN(C(=O)C5CC5)CC4)cc3)nc12 [Compound 13j, 2-(4-(4-(Cyclopropanecarbonyl)piperazine-1-carbonyl)phenyl)-1H-thieno[3,4-d]imidazole-4-carboxamide] | 1.53 µM | 272 to 273 °C | –
12 | NC(=O)c1scc2[nH]c(-c3ccccc3)nc12 [Compound 16a, 2-Phenyl-1H-thieno[3,4-d]imidazole-4-carboxamide] | – | 256 to 257 °C | 0.827 µM
13 | NC(=O)c1scc2[nH]c(-c3ccc(F)cc3)nc12 [Compound 16b, 2-(4-Fluorophenyl)-1H-thieno[3,4-d]imidazole-4-carboxamide] | – | 244 to 246 °C | 0.738 µM
